Assays:
WM-266-4 cells = test: Cell Proliferation Inhibitory Test; format: cell-based; conditions: Homo sapiens, 72 h, cultured three days with test compound, MTT, read-out: 50% cell proliferation inhibitory activity (GI50 value)
Experimental: WM-266-4 cells (ATCC, USA) were seeded in a 96-well plate and cultured overnight. Then, serial dilutions of the sample containing the test compound were prepared, added to each well and cultured another three days. Thereafter, the cell amount in each well was measured by MTT (MOSMANN, T., Rapid colorimetric assay for cellular growth and survival: application to proliferation and cytotoxicity assays. J. Immunol. Methods, 65, 55-63 (1983)). The 50% cell proliferation inhibitory activity (GI50 value) was calculated from the following formula (3). 100×[(T−T0)/(C−T0)]=50 (3)
Here, T represents values from the test compound added wells, C represents the value from the well to which the test compound was not added for three days, and To represents an initial measured value at the time of addition of the test compound.

human mTOR = molecular target: T1, human mTOR (Homo sapiens, UniProt P42345); test: mTOR Kinase Activity Inhibition Test; format: biochemical; conditions: His-tagged mTOR (1362C), biotinylated peptide substrate, ATP, 3 hours at room temperature, fluorescence resonance energy transfer 665 nm/620 nm; read-out: IC50 value of mTOR enzyme inhibitory activity
T1 construct: the portion corresponding to 1362-2549aa at the C terminus of human mTOR; made in house
Experimental: The kinase activity of mTOR was measured in the presence or absence of a test compound. A substrate peptide is phosphorylated by mTOR kinase activity. A complex of streptavidin-XL665 and anti-phosphorylated S6K (Thr389) antibody/anti-mouse IgG-cryptate binds to this phosphorylated peptide. At this moment, fluorescence resonance energy transfer takes place from antibody/anti-mouse IgG-cryptate exposed to light excitation to XL665, which results in emission of fluorescence at 665 nm. The mTOR kinase activity is detected using this principle.
(1) Sample Preparation and Enzymatic Reaction
An HEK293 cell line that constitutively expresses a His tag fused human mTOR has been established. His tag was introduced into the N terminus of the portion corresponding to 1362-2549aa at the C terminus of human mTOR. Cell lysate was prepared from this HEK293 cell line constitutively expressing His-tagged mTOR (1362C), and His-tagged mTOR (1362C) was purified using the His tag affinity according to a conventional method.
Next, an mTOR enzyme solution was prepared, which contains the aforementioned His-tagged mTOR (1362C) enzyme, 8 μg/mL of biotinylated peptide (Biotin-Ahx-[…]-amide (Sigma)), as well as 50 mM HEPES (pH 7.5), 20 mM MnCl2, 1 mg/ml BSA, an appropriate amount of protease inhibitor cocktail (Complete EDTA free, Roche), 100 ng/ml Calyculin A, 4 μg/ml Cantharidin and 10 mM DTT as other components.
The test compound was dissolved in DMSO, and serial dilutions were prepared with 20 μM ATP solution (50 mM HEPES (pH 7.5), 20 μM ATP) to achieve concentrations necessary for the assay. 5 μL of this compound solution was applied to each well of a 384 well small volume white Greiner plate.
5 μL of mTOR enzyme solution was added to the aforementioned well containing the test compound. After mixing, the mixture was incubated at room temperature for 3 hours to carry out the enzymatic reaction.
The same operation was performed with a solution of DMSO in 20 μM ATP solution as a positive control and with a solution of DMSO in 50 mM HEPES (pH 7.5) as a negative control.
(2) Detection of Enzymatic Reaction
After the enzymatic reaction, 5 μl each of an europium solution (a solution of anti-mouse IgG-cryptate (SCETI Medical Labo K.K.) and anti-phosphorylated S6K (Thr389) antibody (Cell Signaling Technology Inc.) in 50 mM HEPES (pH 7.5), 100 mM EDTA and 1.5 mg/ml BSA) and an XL665 solution (a solution of streptavidin-XL665 (SCETI Medical Labo K.K.) in 50 mM HEPES (pH 7.5), 100 mM EDTA, 0.8 M KF and 1.5 mg/ml BSA) were added in this order and then mixed. The mixture was incubated at 4° C. overnight. On the following day, the mixture was returned to room temperature and irradiated with excitation light at 337 nm. Fluorescence at 620 nm and fluorescence at 665 nm were measured with RUBYstar (BMG).
The mTOR inhibitory activity (%) was calculated using the ratio calculated from the measured values as an index of enzyme activity. Here, the ratio was calculated from the following formula (I). Ratio=10000×665 nm fluorescence value/620 nm fluorescence value (1)
The mTOR enzyme inhibitory activity (%) was calculated from the following formula (2). mTOR enzyme inhibitory activity (%)=100×[(P−S)/(P−N)] (2)
P: Ratio in well of positive control
N: Ratio in well of negative control
S: Ratio in well containing test compound
Further, an optimal curve was calculated based upon each concentration of the test compound prepared in serial dilutions and the mTOR enzyme inhibitory activity (%) at that concentration. The concentration at which 50% inhibition occurred was calculated as the IC50 value of mTOR enzyme inhibitory activity.

T1 sequence (P42345 1362-2549): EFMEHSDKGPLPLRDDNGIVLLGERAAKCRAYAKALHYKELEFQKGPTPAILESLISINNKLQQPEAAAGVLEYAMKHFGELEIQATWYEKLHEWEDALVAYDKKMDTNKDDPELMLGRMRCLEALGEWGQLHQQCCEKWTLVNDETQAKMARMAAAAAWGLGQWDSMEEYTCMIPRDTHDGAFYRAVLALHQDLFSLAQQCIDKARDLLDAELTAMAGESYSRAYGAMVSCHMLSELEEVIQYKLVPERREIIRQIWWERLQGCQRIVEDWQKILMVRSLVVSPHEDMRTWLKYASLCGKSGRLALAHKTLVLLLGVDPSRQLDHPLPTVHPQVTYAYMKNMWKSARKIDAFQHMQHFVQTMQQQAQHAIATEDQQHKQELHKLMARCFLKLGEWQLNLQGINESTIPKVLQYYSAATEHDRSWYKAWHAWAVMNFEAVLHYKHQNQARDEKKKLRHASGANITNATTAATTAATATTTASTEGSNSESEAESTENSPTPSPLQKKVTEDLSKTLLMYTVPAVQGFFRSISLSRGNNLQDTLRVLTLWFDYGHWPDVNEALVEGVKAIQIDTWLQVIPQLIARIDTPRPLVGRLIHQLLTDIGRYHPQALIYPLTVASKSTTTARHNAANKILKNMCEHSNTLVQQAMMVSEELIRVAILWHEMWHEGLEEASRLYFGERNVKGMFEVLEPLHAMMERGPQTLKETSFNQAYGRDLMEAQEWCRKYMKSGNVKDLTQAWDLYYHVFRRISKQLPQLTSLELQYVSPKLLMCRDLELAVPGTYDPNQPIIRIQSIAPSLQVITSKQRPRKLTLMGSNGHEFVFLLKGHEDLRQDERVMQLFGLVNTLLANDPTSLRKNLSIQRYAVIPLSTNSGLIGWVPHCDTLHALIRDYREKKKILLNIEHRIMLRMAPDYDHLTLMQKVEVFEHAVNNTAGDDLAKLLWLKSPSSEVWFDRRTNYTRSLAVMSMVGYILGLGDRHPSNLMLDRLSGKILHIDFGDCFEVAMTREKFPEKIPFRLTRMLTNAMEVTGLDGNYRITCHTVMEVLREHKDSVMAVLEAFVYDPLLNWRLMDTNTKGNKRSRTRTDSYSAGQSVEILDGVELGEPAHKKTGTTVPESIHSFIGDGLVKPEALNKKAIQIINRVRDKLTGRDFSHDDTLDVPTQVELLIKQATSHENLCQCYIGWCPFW

Structure (SMILES) | GI50 (WM-266-4 cells) [nM] | IC50 (human mTOR) [nM]
O=c1[nH]c2ncc(-c3cnc4[nH]ccc4c3)cc2n1CC1CCOCC1 [Example 15, 6-(1H-Pyrrolo[2,3-b]pyridin-5-yl)-1-(tetrahydro-2H-pyran-4-ylmethyl)-1,3-dihydro-2H-imidazo[4,5-b]pyridin-2-one] | < 3000 | < 50
Cc1nc2[nH]ccc2cc1-c1cnc2[nH]c(=O)n(CC3CCOCC3)c2c1 [Example 16, 6-(6-Methyl-1H-pyrrolo[2,3-b]pyridin-5-yl)-1-(tetrahydro-2H-pyran-4-ylmethyl)-1,3-dihydro-2H-imidazo[4,5-b]pyridin-2-one] | < 3000 | < 50
Cc1nc2[nH]c(=O)n(CC3CCOCC3)c2cc1-c1cnc2[nH]ccc2c1 [Example 17, 5-Methyl-6-(1H-pyrrolo[2,3-b]pyridin-5-yl)-1-(tetrahydro-2H-pyran-4-ylmethyl)-1,3-dihydro-2H-imidazo[4,5-b]pyridin-2-one] | < 3000 | < 50
Cc1c(-c2cnc3[nH]ccc3c2)cnc2[nH]c(=O)n(CC3CCOCC3)c12 [Example 18, 7-Methyl-6-(1H-pyrrolo[2,3-b]pyridin-5-yl)-1-(tetrahydro-2H-pyran-4-ylmethyl)-1,3-dihydro-2H-imidazo[4,5-b]pyridin-2-one] | < 3000 | < 50
O=c1[nH]c2ncc(-c3cnc4[nH]ccc4c3)cc2n1C1CCOCC1 [Example 19, 6-(1H-Pyrrolo[2,3-b]pyridin-5-yl)-1-(tetrahydro-2H-pyran-4-yl)-1,3-dihydro-2H-imidazo[4,5-b]pyridin-2-one] | < 3000 | < 50
O=c1[nH]c2ncc(-c3cnc4[nH]ccc4c3)cc2n1CCC1CCOCC1 [Example 20, 6-(1H-Pyrrolo[2,3-b]pyridin-5-yl)-1-[2-(tetrahydro-2H-pyran-4-yl)ethyl]-1,3-dihydro-2H-imidazo[4,5-b]pyridin-2-one] | < 3000 | < 50
O=c1[nH]c2ncc(-c3cnc4[nH]ccc4c3)cc2n1CC1CC1 [Example 21, 1-(Cyclopropylmethyl)-6-(1H-pyrrolo[2,3-b]pyridin-5-yl)-1,3-dihydro-2H-imidazo[4,5-b]pyridin-2-one] | < 3000 | < 50
O=c1[nH]c2ncc(-c3cc4ccccc4[nH]3)cc2n1CC1CCOCC1 [Example 23, 6-(1H-Indol-2-yl)-1-(tetrahydro-2H-pyran-4-ylmethyl)-1,3-dihydro-2H-imidazo[4,5-b]pyridin-2-one] | < 3000 | < 50
CC(C1CCOCC1)n1c(=O)[nH]c2ncc(-c3cnc4[nH]ccc4c3)cc21 (centres unmarked) [Example 24, 6-(1H-Pyrrolo[2,3-b]pyridin-5-yl)-1-[1-(tetrahydro-2H-pyran-4-yl)ethyl]-1,3-dihydro-2H-imidazo[4,5-b]pyridin-2-one] | < 3000 | < 50
CC1(Cn2c(=O)[nH]c3ncc(-c4cnc5[nH]ccc5c4)cc32)CCOCC1 [Example 25, 1-[(4-Methyltetrahydro-2H-pyran-4-yl)methyl]-6-(1H-pyrrolo[2,3-b]pyridin-5-yl)-1,3-dihydro-2H-imidazo[4,5-b]pyridin-2-one] | < 3000 | < 50
CS(=O)(=O)N1CCC(Cn2c(=O)[nH]c3ncc(-c4cnc5[nH]ccc5c4)cc32)CC1 [Example 26, 1-{[1-(Methanesulfonyl)piperidin-4-yl]methyl}-6-(1H-pyrrolo[2,3-b]pyridin-5-yl)-1,3-dihydro-2H-imidazo[4,5-b]pyridin-2-one] | < 3000 | < 50
O=c1[nH]c2ncc(-c3ccc4[nH]ccc4c3F)cc2n1CC1CCOCC1 [Example 27, 6-(4-Fluoro-1H-indol-5-yl)-1-(tetrahydro-2H-pyran-4-ylmethyl)-1,3-dihydro-2H-imidazo[4,5-b]pyridin-2-one] | < 3000 | < 50
O=c1[nH]c2ncc(-c3cc4cc[nH]c4cc3F)cc2n1CC1CCOCC1 [Example 28, 6-(6-Fluoro-1H-indol-5-yl)-1-(tetrahydro-2H-pyran-4-ylmethyl)-1,3-dihydro-2H-imidazo[4,5-b]pyridin-2-one] | < 3000 | < 50
O=c1[nH]c2ncc(-c3cc(F)c4[nH]ccc4c3)cc2n1CC1CCOCC1 [Example 29, 6-(7-Fluoro-1H-indol-5-yl)-1-(tetrahydro-2H-pyran-4-ylmethyl)-1,3-dihydro-2H-imidazo[4,5-b]pyridin-2-one] | < 3000 | < 50
O=c1[nH]c2ncc(-c3cnc4[nH]ccc4c3)cc2n1CC1=CCCOC1 [Example 31, 1-(5,6-Dihydro-2H-pyran-3-ylmethyl)-6-(1H-pyrrolo[2,3-b]pyridin-5-yl)-1,3-dihydro-2H-imidazo[4,5-b]pyridin-2-one] | < 3000 | < 50
O=c1[nH]c2ncc(-c3cnc4[nH]ccc4c3)cc2n1CC1CCCOC1 (centres unmarked) [Example 32, 6-(1H-Pyrrolo[2,3-b]pyridin-5-yl)-1-(tetrahydro-2H-pyran-3-ylmethyl)-1,3-dihydro-2H-imidazo[4,5-b]pyridin-2-one] | < 3000 | < 50
O=c1[nH]c2ncc(-c3cc(F)c4[nH]ccc4c3)cc2n1CCN1CCOCC1 [Example 33, 6-(7-Fluoro-1H-indol-5-yl)-1-(2-morpholin-4-ylethyl)-1,3-dihydro-2H-imidazo[4,5-b]pyridin-2-one] | < 3000 | < 50
O=c1[nH]c2ncc(-c3cnc4[nH]ccc4c3Cl)cc2n1CC1CCOCC1 [Example 34, 6-(4-Chloro-1H-pyrrolo[2,3-b]pyridin-5-yl)-1-(tetrahydro-2H-pyran-4-ylmethyl)-1,3-dihydro-2H-imidazo[4,5-b]pyridin-2-one] | < 3000 | < 50
O=c1[nH]c2ncc(-c3cnc4[nH]cc(Cl)c4c3)cc2n1CC1CCOCC1 [Example 35, 6-(3-Chloro-1H-pyrrolo[2,3-b]pyridin-5-yl)-1-(tetrahydro-2H-pyran-4-ylmethyl)-1,3-dihydro-2H-imidazo[4,5-b]pyridin-2-one] | < 3000 | < 50
Cc1c(-c2cnc3[nH]c(=O)n(CC4CCOCC4)c3c2)cnc2[nH]ccc12 [Example 36, 6-(4-Methyl-1H-pyrrolo[2,3-b]pyridin-5-yl)-1-(tetrahydro-2H-pyran-4-ylmethyl)-1,3-dihydro-2H-imidazo[4,5-b]pyridin-2-one] | < 3000 | < 50
Cc1c[nH]c2ncc(-c3cnc4[nH]c(=O)n(CC5CCOCC5)c4c3)cc12 [Example 37, 6-(3-Methyl-1H-pyrrolo[2,3-b]pyridin-5-yl)-1-(tetrahydro-2H-pyran-4ylmethyl)-1,3-dihydro-2H-imidazo[4,5-b]pyridin-2-one] | < 3000 | < 50
O=c1[nH]c2ncc(-c3cnc4[nH]ccc4c3)cc2n1CC1COCCO1 (centres unmarked) [Example 38, 1-(1,4-Dioxan-2-ylmethyl)-6-(1H-pyrrolo[2,3-b]pyridin-5-yl)-1,3-dihydro-2H-imidazo[4,5-b]pyridin-2-one] | < 3000 | < 50

Reference: US8436012B2, “Imidazopyridin-2-one derivatives” (Daiichi Sankyo Company, Limited, priority 2008, dated 2013)
